Measurements taken from publication PMC8800111 (The Journal of Biological Chemistry, 2021).

Key:
Format in all cases: cell-based
[1] = biological target: proteins of U3A human fibrosarcoma cells (4462 proteins detected) (Homo sapiens, UniProt O00399); conditions: protein DCTN6, U3A cells
[2] = biological target: proteins of U3A human fibrosarcoma cells (4462 proteins detected) (Homo sapiens, UniProt O14972); conditions: protein DSCR3; U3A, 10 μM, 2 h
[3] = biological target: proteins of U3A human fibrosarcoma cells (4462 proteins detected) (Homo sapiens, UniProt O60684); conditions: protein KPNA6; U3A cells
[4] = biological target: proteins of U3A human fibrosarcoma cells (4462 proteins detected) (Homo sapiens, UniProt O75351); conditions: protein VPS4B; soluble abundance after heat, U3A cells
proteins of U3A human fibrosarcoma cells (4462 proteins detected) (Homo sapiens, UniProt O75351), sequence (O75351 whole entry): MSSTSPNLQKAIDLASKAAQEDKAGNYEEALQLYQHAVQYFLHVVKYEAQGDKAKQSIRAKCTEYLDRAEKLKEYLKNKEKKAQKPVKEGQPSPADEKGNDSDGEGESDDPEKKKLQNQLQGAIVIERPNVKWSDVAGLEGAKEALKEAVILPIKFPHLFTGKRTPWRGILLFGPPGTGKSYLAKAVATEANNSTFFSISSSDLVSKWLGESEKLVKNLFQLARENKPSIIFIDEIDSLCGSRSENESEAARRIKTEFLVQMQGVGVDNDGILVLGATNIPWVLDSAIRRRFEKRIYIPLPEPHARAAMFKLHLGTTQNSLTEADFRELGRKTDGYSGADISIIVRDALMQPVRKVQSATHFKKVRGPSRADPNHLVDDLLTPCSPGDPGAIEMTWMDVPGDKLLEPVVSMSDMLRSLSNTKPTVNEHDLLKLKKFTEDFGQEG

[5] = biological target: proteins of U3A human fibrosarcoma cells (4462 proteins detected) (Homo sapiens, UniProt O75643); conditions: protein SNRNP200; soluble abundance after heat, U3A cells
[6] = biological target: proteins of U3A human fibrosarcoma cells (4462 proteins detected) (Homo sapiens, UniProt O75663); conditions: protein TIPRL; soluble abundance after heat, U3A cells
proteins of U3A human fibrosarcoma cells (4462 proteins detected) (Homo sapiens, UniProt O75663), sequence (O75663 whole entry): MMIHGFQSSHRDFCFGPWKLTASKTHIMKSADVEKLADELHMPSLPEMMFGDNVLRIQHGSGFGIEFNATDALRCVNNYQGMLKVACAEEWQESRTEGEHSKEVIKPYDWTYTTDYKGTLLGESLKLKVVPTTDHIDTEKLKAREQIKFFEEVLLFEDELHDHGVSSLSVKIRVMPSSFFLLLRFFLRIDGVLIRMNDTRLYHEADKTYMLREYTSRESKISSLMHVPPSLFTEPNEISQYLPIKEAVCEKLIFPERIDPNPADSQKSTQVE

[7] = biological target: proteins of U3A human fibrosarcoma cells (4462 proteins detected) (Homo sapiens, UniProt O76003); conditions: protein GLRX3; U3A cells
[8] = biological target: proteins of U3A human fibrosarcoma cells (4462 proteins detected) (Homo sapiens, UniProt P07910); conditions: protein HNRNPC; U3A, 10 μM, 2 h
proteins of U3A human fibrosarcoma cells (4462 proteins detected) (Homo sapiens, UniProt P07910), sequence (P07910 whole entry): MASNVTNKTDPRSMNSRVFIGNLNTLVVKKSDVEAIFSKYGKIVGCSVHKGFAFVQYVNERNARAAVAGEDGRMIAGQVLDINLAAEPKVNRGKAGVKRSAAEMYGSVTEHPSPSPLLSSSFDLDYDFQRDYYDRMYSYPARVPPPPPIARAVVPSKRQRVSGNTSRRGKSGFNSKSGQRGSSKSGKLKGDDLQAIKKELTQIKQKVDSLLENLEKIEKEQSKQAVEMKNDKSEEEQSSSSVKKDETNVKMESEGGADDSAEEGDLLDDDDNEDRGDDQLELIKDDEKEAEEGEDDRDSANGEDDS

[9] = biological target: proteins of U3A human fibrosarcoma cells (4462 proteins detected) (Homo sapiens, UniProt P17706); conditions: protein PTPN2, U3A cells
[10] = biological target: proteins of U3A human fibrosarcoma cells (4462 proteins detected) (Homo sapiens, UniProt P17987); conditions: protein TCP1; U3A cells
[11] = biological target: proteins of U3A human fibrosarcoma cells (4462 proteins detected) (Homo sapiens, UniProt P24666); conditions: protein ACP1, U3A cells
proteins of U3A human fibrosarcoma cells (4462 proteins detected) (Homo sapiens, UniProt P24666), sequence (P24666 whole entry): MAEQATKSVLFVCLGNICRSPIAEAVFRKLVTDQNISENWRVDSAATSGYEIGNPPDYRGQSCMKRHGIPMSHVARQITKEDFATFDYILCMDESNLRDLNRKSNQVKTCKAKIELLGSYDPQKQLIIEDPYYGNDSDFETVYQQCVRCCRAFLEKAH

[12] = biological target: proteins of U3A human fibrosarcoma cells (4462 proteins detected) (Homo sapiens, UniProt P26447); conditions: protein S100A4; U3A, 10 μM, 2 h
proteins of U3A human fibrosarcoma cells (4462 proteins detected) (Homo sapiens, UniProt P26447), sequence (P26447 whole entry): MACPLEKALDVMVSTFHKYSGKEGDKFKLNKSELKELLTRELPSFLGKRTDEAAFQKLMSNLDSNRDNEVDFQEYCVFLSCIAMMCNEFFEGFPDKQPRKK

[13] = biological target: proteins of U3A human fibrosarcoma cells (4462 proteins detected) (Homo sapiens, UniProt P27824); conditions: protein CANX; soluble abundance after heat, U3A cells
proteins of U3A human fibrosarcoma cells (4462 proteins detected) (Homo sapiens, UniProt P27824), sequence (P27824 21-592): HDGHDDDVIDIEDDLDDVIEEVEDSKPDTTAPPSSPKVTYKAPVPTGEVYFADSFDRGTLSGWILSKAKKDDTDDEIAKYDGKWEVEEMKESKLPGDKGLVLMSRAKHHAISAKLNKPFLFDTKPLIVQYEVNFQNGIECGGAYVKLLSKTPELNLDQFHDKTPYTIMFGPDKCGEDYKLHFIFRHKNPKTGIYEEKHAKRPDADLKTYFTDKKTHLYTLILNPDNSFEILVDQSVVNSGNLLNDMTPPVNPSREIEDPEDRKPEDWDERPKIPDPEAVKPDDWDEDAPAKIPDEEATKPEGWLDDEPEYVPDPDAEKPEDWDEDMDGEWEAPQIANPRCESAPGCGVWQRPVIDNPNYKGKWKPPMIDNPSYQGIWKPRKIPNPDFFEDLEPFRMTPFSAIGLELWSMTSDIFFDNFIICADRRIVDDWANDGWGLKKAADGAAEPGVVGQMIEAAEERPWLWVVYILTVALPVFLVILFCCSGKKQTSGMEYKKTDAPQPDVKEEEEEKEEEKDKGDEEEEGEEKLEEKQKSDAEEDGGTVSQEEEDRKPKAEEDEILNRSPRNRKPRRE

[14] = biological target: proteins of U3A human fibrosarcoma cells (4462 proteins detected) (Homo sapiens, UniProt P40123); conditions: protein CAP2; U3A cells
[15] = biological target: proteins of U3A human fibrosarcoma cells (4462 proteins detected) (Homo sapiens, UniProt P40227); conditions: protein CCT6A; U3A cells
[16] = biological target: proteins of U3A human fibrosarcoma cells (4462 proteins detected) (Homo sapiens, UniProt P43243); conditions: protein MATR3; soluble abundance after heat, U3A cells
[17] = biological target: proteins of U3A human fibrosarcoma cells (4462 proteins detected) (Homo sapiens, UniProt Q12805); conditions: protein EFEMP1; U3A cells
[18] = biological target: proteins of U3A human fibrosarcoma cells (4462 proteins detected) (Homo sapiens, UniProt Q13217); conditions: protein DNAJC3; soluble abundance after heat, U3A cells
[19] = biological target: proteins of U3A human fibrosarcoma cells (4462 proteins detected) (Homo sapiens, UniProt Q14657); conditions: protein LAGE3; soluble abundance after heat, U3A cells
proteins of U3A human fibrosarcoma cells (4462 proteins detected) (Homo sapiens, UniProt Q14657), sequence (Q14657 whole entry): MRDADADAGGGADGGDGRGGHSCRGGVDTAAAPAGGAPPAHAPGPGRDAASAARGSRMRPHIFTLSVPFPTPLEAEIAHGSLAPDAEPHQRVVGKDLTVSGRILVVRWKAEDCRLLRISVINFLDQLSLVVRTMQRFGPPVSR

[20] = biological target: proteins of U3A human fibrosarcoma cells (4462 proteins detected) (Homo sapiens, UniProt Q15043); conditions: protein SLC39A14; soluble abundance after heat, U3A cells
[21] = biological target: proteins of U3A human fibrosarcoma cells (4462 proteins detected) (Homo sapiens, UniProt Q8TED0); conditions: protein UTP15; U3A cells
[22] = biological target: proteins of U3A human fibrosarcoma cells (4462 proteins detected) (Homo sapiens, UniProt Q92585); conditions: protein MAML1, U3A cells
proteins of U3A human fibrosarcoma cells (4462 proteins detected) (Homo sapiens, UniProt Q92585), sequence (Q92585 whole entry): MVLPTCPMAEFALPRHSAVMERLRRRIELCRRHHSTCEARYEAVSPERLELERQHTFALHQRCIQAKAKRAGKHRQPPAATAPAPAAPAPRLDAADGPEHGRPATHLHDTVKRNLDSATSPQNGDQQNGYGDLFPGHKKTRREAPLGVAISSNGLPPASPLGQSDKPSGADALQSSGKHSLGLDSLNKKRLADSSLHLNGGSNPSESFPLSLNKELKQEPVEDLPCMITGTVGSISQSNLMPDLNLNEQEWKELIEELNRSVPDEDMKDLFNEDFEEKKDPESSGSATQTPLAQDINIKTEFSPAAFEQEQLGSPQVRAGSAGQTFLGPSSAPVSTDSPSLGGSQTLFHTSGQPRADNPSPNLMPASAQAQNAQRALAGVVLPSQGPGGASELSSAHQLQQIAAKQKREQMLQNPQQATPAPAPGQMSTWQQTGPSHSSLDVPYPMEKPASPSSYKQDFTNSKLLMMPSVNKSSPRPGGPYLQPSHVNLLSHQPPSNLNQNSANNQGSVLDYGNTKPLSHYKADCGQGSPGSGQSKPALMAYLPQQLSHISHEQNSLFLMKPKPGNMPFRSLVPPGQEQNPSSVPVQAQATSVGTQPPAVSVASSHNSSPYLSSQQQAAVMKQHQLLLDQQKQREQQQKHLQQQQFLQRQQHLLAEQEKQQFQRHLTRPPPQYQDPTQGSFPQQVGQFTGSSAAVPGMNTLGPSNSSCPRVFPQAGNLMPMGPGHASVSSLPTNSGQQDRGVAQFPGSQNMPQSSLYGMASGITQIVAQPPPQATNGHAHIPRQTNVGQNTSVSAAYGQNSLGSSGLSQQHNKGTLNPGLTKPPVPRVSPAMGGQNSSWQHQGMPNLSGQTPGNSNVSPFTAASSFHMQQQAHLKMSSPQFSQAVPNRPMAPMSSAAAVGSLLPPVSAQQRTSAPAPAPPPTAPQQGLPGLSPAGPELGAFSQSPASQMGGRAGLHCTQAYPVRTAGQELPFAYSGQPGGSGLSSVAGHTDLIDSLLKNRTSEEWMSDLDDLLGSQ

[23] = biological target: proteins of U3A human fibrosarcoma cells (4462 proteins detected) (Homo sapiens, UniProt Q96Q89); conditions: protein KIF20B; U3A cells
[24] = biological target: proteins of U3A human fibrosarcoma cells (4462 proteins detected) (Homo sapiens, UniProt Q9BT78); conditions: protein COPS4; U3A cells
[25] = biological target: proteins of U3A human fibrosarcoma cells (4462 proteins detected) (Homo sapiens, UniProt Q9HC36); conditions: protein RNMTL1; U3A cells
[26] = biological target: proteins of U3A human fibrosarcoma cells (4462 proteins detected) (Homo sapiens, UniProt Q9NPD8); conditions: protein UBE2T; soluble abundance after heat, U3A cells
proteins of U3A human fibrosarcoma cells (4462 proteins detected) (Homo sapiens, UniProt Q9NPD8), sequence (Q9NPD8 whole entry): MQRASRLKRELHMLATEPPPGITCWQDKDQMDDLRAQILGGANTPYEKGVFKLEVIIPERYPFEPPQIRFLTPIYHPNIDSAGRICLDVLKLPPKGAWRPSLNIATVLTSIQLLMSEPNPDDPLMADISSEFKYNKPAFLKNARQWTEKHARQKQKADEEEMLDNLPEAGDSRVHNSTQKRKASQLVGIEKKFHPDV

[27] = biological target: proteins of U3A human fibrosarcoma cells (4462 proteins detected) (Homo sapiens, UniProt Q9NWT1); conditions: protein PAK1IP1; U3A cells
proteins of U3A human fibrosarcoma cells (4462 proteins detected) (Homo sapiens, UniProt Q9NWT1), sequence (Q9NWT1 whole entry): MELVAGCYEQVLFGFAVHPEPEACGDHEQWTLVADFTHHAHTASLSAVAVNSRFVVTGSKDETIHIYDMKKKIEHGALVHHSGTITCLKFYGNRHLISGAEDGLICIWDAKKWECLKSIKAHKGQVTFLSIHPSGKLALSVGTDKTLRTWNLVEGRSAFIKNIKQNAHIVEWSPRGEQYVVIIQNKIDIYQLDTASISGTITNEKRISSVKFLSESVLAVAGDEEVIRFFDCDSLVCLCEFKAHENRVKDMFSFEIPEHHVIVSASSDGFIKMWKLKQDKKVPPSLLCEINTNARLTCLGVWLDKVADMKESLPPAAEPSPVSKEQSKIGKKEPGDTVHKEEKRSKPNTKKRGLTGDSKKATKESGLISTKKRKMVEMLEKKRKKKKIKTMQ

[28] = biological target: proteins of U3A human fibrosarcoma cells (4462 proteins detected) (Homo sapiens, UniProt Q9NZT2); conditions: protein OGFR, U3A cells
[29] = biological target: proteins of U3A human fibrosarcoma cells (4462 proteins detected) (Homo sapiens, UniProt Q9P000); conditions: protein COMMD9; U3A cells
proteins of U3A human fibrosarcoma cells (4462 proteins detected) (Homo sapiens, UniProt Q9P000), sequence (Q9P000 whole entry): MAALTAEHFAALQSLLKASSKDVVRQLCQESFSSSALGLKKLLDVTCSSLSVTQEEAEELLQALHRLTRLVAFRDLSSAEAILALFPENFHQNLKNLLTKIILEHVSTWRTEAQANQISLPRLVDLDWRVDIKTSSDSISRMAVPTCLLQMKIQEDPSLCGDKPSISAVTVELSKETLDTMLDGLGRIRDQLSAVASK

proteins of U3A human fibrosarcoma cells (4462 proteins detected) (Homo sapiens, UniProt O14972), sequence (O14972 whole entry): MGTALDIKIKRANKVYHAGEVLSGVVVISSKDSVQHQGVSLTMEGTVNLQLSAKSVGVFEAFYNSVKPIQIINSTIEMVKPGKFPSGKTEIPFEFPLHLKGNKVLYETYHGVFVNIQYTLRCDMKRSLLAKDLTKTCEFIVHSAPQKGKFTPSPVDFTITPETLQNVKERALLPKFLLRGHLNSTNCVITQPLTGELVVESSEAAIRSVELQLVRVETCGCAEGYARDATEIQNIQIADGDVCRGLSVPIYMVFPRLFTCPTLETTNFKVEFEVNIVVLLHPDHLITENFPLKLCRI
proteins of U3A human fibrosarcoma cells (4462 proteins detected) (Homo sapiens, UniProt O00399), sequence (O00399 whole entry): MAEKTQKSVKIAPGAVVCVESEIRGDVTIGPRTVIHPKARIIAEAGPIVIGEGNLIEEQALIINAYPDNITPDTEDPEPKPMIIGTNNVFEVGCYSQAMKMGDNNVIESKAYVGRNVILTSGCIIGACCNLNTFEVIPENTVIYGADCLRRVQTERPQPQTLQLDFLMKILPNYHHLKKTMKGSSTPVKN

## CCc1nc(N)nc(N)c1-c1ccc(Cl)cc1 [pyrimethamine]
[1]
  Log2 (PYR/DMSO): -0.04
[2]
  Log2 (PYR/DMSO), DSCR3: -0.16
[3]
  Log2 (PYR/DMSO): 0.24
[4]
  Log2 (PYR/DMSO): 0.14
[5]
  Log2 (PYR/DMSO): 0.15
[6]
  Log2 (PYR/DMSO): 0.14
[7]
  Log2 (PYR/DMSO): 0.16
[8]
  Log2 (PYR/DMSO), HNRNPC: 0.27
[9]
  Log2 (PYR/DMSO): -0.04
[10]
  Log2 (PYR/DMSO): 0.21
[11]
  Log2 (PYR/DMSO): -0.04
[12]
  Log2 (PYR/DMSO), S100A4: -0.16
[13]
  Log2 (PYR/DMSO): 0.14
[14]
  Log2 (PYR/DMSO): 0.21
[15]
  Log2 (PYR/DMSO): 0.20
[16]
  Log2 (PYR/DMSO): 0.14
[17]
  Log2 (PYR/DMSO): 0.18
[18]
  Log2 (PYR/DMSO): 0.14
[19]
  Log2 (PYR/DMSO): 0.14
[20]
  Log2 (PYR/DMSO): 0.14
[21]
  Log2 (PYR/DMSO): 0.16
[22]
  Log2 (PYR/DMSO): -0.04
[23]
  Log2 (PYR/DMSO): 0.23
[24]
  Log2 (PYR/DMSO): 0.20
[25]
  Log2 (PYR/DMSO): 0.21
[26]
  Log2 (PYR/DMSO): 0.13
[27]
  Log2 (PYR/DMSO): 0.18
[28]
  Log2 (PYR/DMSO): -0.04
[29]
  Log2 (PYR/DMSO): 0.16
